According to patent US12043599B2, “Herbicidal compounds” (SYNGENTA PARTICIPATIONS AG, priority 2018, dated 2024):

How the values were obtained:
Assay type in all cases: in vivo
Conditions in all cases: 250 g/h, evaluated after 13 days
[1] = test system: Lolium perenne (LOLPE); assay: Post-emergence herbicidal glasshouse test, percentage damage
How it was run: (§1)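 Herbicidal effect was scored 13 days after a 250 g/h spray, using bands of 0-19% (1) through 80-100% (5). Sowing preceded spraying by 1 day for pre-emergence and 8 days for post-emergence. The glasshouse ran at 24/16 °C with 14 h light.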

[2] = test system: Avena fatua (AVEFA); assay: as above
How it was run: as §1

[3] = test system: Echinochloa crus-galli (ECHCG); assay: as above
How it was run: as §1

[4] = test system: Alopecurus myosuroides (ALOMY); assay: as above
How it was run: as §1

[5] = test system: Lolium perenne (LOLPE); assay: Pre-emergence herbicidal glasshouse test, percentage damage
How it was run: as §1

[6] = test system: Setaria faberi (SETFA); assay: as above
How it was run: as §1

[7] = test system: Avena fatua (AVEFA); assay: as above
How it was run: as §1

[8] = test system: Echinochloa crus-galli (ECHCG); assay: as above
How it was run: as §1

[9] = test system: Alopecurus myosuroides (ALOMY); assay: as above
How it was run: as §1

[10] = test system: Setaria faberi (SETFA); assay: Post-emergence herbicidal glasshouse test, percentage damage
How it was run: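 Percentage damage was scored 13 days after treatment on a five-point scale (1=0-19% to 5=80-100%). Treatments were post-emergence sprays on 8-day-old wheat, barley and SETFA plants in a glasshouse (24/16 °C day/night, 14 h light, 65% humidity), using acetone/water 50:50 with 0.5% Tween 20 at the stated rates. Wheat additionally received cloquintocet-mexyl safener at 50 g/ha.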

Row | Compound | LOLPE POST percentage damage (five point scale) [1] | AVEFA POST percentage damage (five point scale) [2] | ECHCG POST percentage damage (five point scale) [3] | ALOMY POST percentage damage (five point scale) [4] | LOLPE PRE percentage damage (five point scale) [5] | SETFA PRE percentage damage (five point scale) [6] | AVEFA PRE percentage damage (five point scale) [7] | ECHCG PRE percentage damage (five point scale) [8] | ALOMY PRE percentage damage (five point scale) [9] | SETFA POST percentage damage (five point scale) [10]
1 | CC#Cc1cc(C)c(C2C(=O)CC3(CCN(C(=O)N4CCOCC4)CC3)CC2=O)c(C)c1 [Compound A13] | 5 (5=80-100%) | 5 (5=80-100%) | 5 (5=80-100%) | 5 (5=80-100%) | 5 (5=80-100%) | 5 (5=80-100%) | 5 (5=80-100%) | 5 (5=80-100%) | 5 (5=80-100%) | 5 (5=80-100%)
2 | CC#Cc1cc(C)c(C2C(=O)CC3(CCN(C(=O)N(C)C(C)=O)CC3)CC2=O)c(C)c1 [Compound A86] | 5 (5=80-100%) | 5 (5=80-100%) | 5 (5=80-100%) | 5 (5=80-100%) | 5 (5=80-100%) | 5 (5=80-100%) | 5 (5=80-100%) | 5 (5=80-100%) | 5 (5=80-100%) | 5 (5=80-100%)
3 | CC#Cc1cc(C)c(C2C(=O)CC3(CCN(C(=O)c4cnccc4C#N)CC3)CC2=O)c(C)c1 [Compound A192] | 5 (5=80-100%) | 5 (5=80-100%) | 5 (5=80-100%) | 5 (5=80-100%) | 5 (5=80-100%) | 5 (5=80-100%) | 3 (3=40-59%) | 5 (5=80-100%) | 3 (3=40-59%) | 5 (5=80-100%)
4 | CC#Cc1cc(C)c(C2C(=O)CC3(CCN(C(=O)CCOCC)CC3)CC2=O)c(C)c1 [Compound A172] | 5 (5=80-100%) | 5 (5=80-100%) | 5 (5=80-100%) | 5 (5=80-100%) | 5 (5=80-100%) | 5 (5=80-100%) | 5 (5=80-100%) | 5 (5=80-100%) | 5 (5=80-100%) | 5 (5=80-100%)
5 | CC#Cc1cc(C)c(C2C(=O)CC3(CCN(C(=O)NC(=O)c4cccnc4)CC3)CC2=O)c(C)c1 [Compound A145] | 5 (5=80-100%) | 5 (5=80-100%) | 5 (5=80-100%) | 5 (5=80-100%) | 4 (4=60-79%) | 5 (5=80-100%) | 2 (2=20-39%) | 5 (5=80-100%) | 3 (3=40-59%) | 5 (5=80-100%)
6 | CC#Cc1cc(C)c(C2=C(OS(=O)(=O)c3ccccn3)CC3(CCN(S(=O)(=O)c4ccccn4)CC3)CC2=O)c(C)c1 [Compound P17] | 5 (5=80-100%) | 5 (5=80-100%) | 5 (5=80-100%) | 5 (5=80-100%) | 4 (4=60-79%) | 4 (4=60-79%) | 3 (3=40-59%) | 5 (5=80-100%) | 5 (5=80-100%) | 5 (5=80-100%)
7 | CC#Cc1cc(C)c(C2C(=O)CC3(CCN(C(=O)C4=NOCC4)CC3)CC2=O)c(C)c1 [Compound A88] | 5 (5=80-100%) | 5 (5=80-100%) | 5 (5=80-100%) | 5 (5=80-100%) | 5 (5=80-100%) | 5 (5=80-100%) | 5 (5=80-100%) | 5 (5=80-100%) | 5 (5=80-100%) | 5 (5=80-100%)
8 | CC#Cc1cc(C)c(C2C(=O)CC3(CCN(C(=O)COCCOC)CC3)CC2=O)c(C)c1 [Compound A147] | 5 (5=80-100%) | 5 (5=80-100%) | 5 (5=80-100%) | 5 (5=80-100%) | 5 (5=80-100%) | 5 (5=80-100%) | 3 (3=40-59%) | 5 (5=80-100%) | 4 (4=60-79%) | 5 (5=80-100%)
9 | CC#Cc1cc(C)c(C2C(=O)CC3(CCN([S+]([O-])C(F)F)CC3)CC2=O)c(C)c1 (centres unmarked) [Compound A81] | 5 (5=80-100%) | 5 (5=80-100%) | 5 (5=80-100%) | 5 (5=80-100%) | 5 (5=80-100%) | 5 (5=80-100%) | 5 (5=80-100%) | 5 (5=80-100%) | 5 (5=80-100%) | 5 (5=80-100%)
10 | CC#Cc1cc(C)c(C2C(=O)CC3(CCN(C(=O)Cc4cnc[nH]4)CC3)CC2=O)c(C)c1 [Compound A196] | 5 (5=80-100%) | 5 (5=80-100%) | 5 (5=80-100%) | 5 (5=80-100%) | 5 (5=80-100%) | 5 (5=80-100%) | 4 (4=60-79%) | 5 (5=80-100%) | 3 (3=40-59%) | 5 (5=80-100%)
11 | CC#Cc1cc(C)c(C2C(=O)CC3(CCN(C(=O)CCn4cccn4)CC3)CC2=O)c(C)c1 [Compound A195] | 5 (5=80-100%) | 5 (5=80-100%) | 5 (5=80-100%) | 5 (5=80-100%) | 5 (5=80-100%) | 5 (5=80-100%) | 5 (5=80-100%) | 2 (2=20-39%) | 4 (4=60-79%) | 5 (5=80-100%)
12 | CC#Cc1cc(C)c(C2C(=O)CC3(CCN(C(=O)COC(C)(C)C)CC3)CC2=O)c(C)c1 [Compound A185] | 5 (5=80-100%) | 5 (5=80-100%) | 5 (5=80-100%) | 5 (5=80-100%) | 5 (5=80-100%) | 5 (5=80-100%) | 4 (4=60-79%) | 5 (5=80-100%) | 5 (5=80-100%) | 5 (5=80-100%)
13 | CC#Cc1cc(C)c(C2C(=O)CC3(CCN(C(=O)Nc4cccnc4)CC3)CC2=O)c(C)c1 [Compound A22] | 5 (5=80-100%) | 5 (5=80-100%) | 5 (5=80-100%) | 5 (5=80-100%) | 5 (5=80-100%) | 5 (5=80-100%) | 5 (5=80-100%) | 5 (5=80-100%) | 5 (5=80-100%) | 5 (5=80-100%)
14 | CC#Cc1cc(C)c(C2=C(OC(=O)C(C)OC)CC3(CCN(C(=O)C(C)OC)CC3)CC2=O)c(C)c1 (centres unmarked) [Compound P6] | 5 (5=80-100%) | 5 (5=80-100%) | 5 (5=80-100%) | 5 (5=80-100%) | 5 (5=80-100%) | 5 (5=80-100%) | 5 (5=80-100%) | 5 (5=80-100%) | 5 (5=80-100%) | 5 (5=80-100%)
